# US11377469B2, “CD73 inhibitors” (ORIC Pharmaceuticals, Inc., priority 2017, dated 2022)
# Target: CD73 (Homo sapiens (Human), UniProt P21589)
# Assay: Biochemical Assay (CD73 inhibition, AMP hydrolysis, Malachite Green readout)
# Conditions: CD73 0.3208 nM, AMP 15 μM, Tris-HCl pH 7.4, Malachite Green absorbance
# Sequence of CD73 (P21589 27-574): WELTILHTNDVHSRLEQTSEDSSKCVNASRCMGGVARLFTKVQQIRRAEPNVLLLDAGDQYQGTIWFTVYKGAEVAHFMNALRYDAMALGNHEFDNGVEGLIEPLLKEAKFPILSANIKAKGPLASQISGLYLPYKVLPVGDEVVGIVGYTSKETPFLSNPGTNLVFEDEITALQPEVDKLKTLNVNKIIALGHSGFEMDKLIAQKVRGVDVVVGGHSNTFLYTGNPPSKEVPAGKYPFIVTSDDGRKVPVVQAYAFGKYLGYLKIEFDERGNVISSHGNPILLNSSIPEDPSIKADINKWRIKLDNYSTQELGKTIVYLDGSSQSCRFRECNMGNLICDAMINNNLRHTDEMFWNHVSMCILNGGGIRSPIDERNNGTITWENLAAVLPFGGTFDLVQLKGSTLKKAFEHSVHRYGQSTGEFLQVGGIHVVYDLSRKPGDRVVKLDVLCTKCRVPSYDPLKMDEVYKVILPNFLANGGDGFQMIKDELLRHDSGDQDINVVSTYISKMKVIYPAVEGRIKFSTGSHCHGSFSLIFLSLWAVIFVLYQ
row,IC50 [nM],Compound
1,> 1000,"Cc1cc2c(NCC3CC3)nc(Cl)nc2n1[C@@H]1O[C@H](COCP(=O)(O)O)[C@@H](O)[C@H]1O [Example 97, ((((2R,3S,4R,5R)-5-(2-chloro-4-((cyclopropylmethyl)amino)-6-methyl-7H-pyrrolo[2,3-d]pyrimidin-7-yl)-3,4-dihydroxytetrahydrofuran-2-yl)methoxy)methyl)phosphonic acid]"
2,≤ 500,"O=P(O)(O)CS(=O)(=O)C[C@H]1O[C@@H](n2ncc3c(NCc4ccccc4Cl)nc(Cl)nc32)[C@H](O)[C@@H]1O [Example 14, (((((2S,3S,4R,5R)-5-(6-Chloro-4-((2-chlorobenzyl)amino)-1H-pyrazolo[3,4-d]pyrimidin-1-yl)-3,4-dihydroxytetrahydrofuran-2-yl)methyl)sulfonyl)methyl)phosphonic acid]"
3,≤ 500,"O=P(O)(O)COC[C@H]1O[C@@H](n2ncc3c(NCC4CC4)nc(Cl)nc32)[C@H](O)[C@@H]1O [Example 38, ((((2R,3S,4R,5R)-5-(6-chloro-4-((cyclopropylmethyl)amino)-1H-pyrazolo[3,4-d]pyrimidin-1-yl)-3,4-dihydroxytetrahydrofuran-2-yl)methoxy)methyl)phosphonic acid]"
4,≤ 500,"O=P(O)(O)COC[C@H]1O[C@@H](n2nnc3c(NC4CCCC4)nc(Cl)nc32)[C@H](O)[C@@H]1O [Example 95, ((((2R,3S,4R,5R)-5-(5-chloro-7-(cyclopentylamino)-3H-[1,2,3]triazolo[4,5-d]pyrimidin-3-yl)-3,4-dihydroxytetrahydrofuran-2-yl)methoxy)methyl)phosphonic acid]"
5,> 1000,"CN(Cc1ccccc1)c1nc(Cl)nc2c1cnn2[C@H]1O[C@H](COCCP(=O)(O)O)[C@@H](O)[C@H]1O [Example 6, (2-(((2R,3S,4R,5S)-5-(4-(Benzyl(methyl)amino)-6-chloro-1H-pyrazolo[3,4-d]pyrimidin-1-yl)-3,4-dihydroxytetrahydrofuran-2-yl)methoxy)ethyl)phosphonic acid]"
6,≤ 500,"O=P(O)(O)COC[C@H]1O[C@@H](n2ncc3c(NCCC4CC4)nc(Cl)nc32)[C@H](O)[C@@H]1O [Example 94, ((((2R,3S,4R,5R)-5-(6-chloro-4-((2-cyclopropylethyl)amino)-1H-pyrazolo[3,4-d]pyrimidin-1-yl)-3,4-dihydroxytetrahydrofuran-2-yl)methoxy)methyl)phosphonic acid]"
7,≤ 500,"CN(Cc1cccc(Cl)c1)c1nc(Cl)nc2c1nnn2[C@@H]1O[C@H](COCP(=O)(O)O)[C@@H](O)[C@H]1O [Example 39, ((((2R,3S,4R,5R)-5-(5-chloro-7-((3-chlorobenzyl)(methyl)amino)-3H-[1,2,3]triazolo[4,5-d]pyrimidin-3-yl)-3,4-dihydroxytetrahydrofuran-2-yl)methoxy)methyl)phosphonic acid]"
8,≤ 500,"C[C@H]1CCC[C@H]1Nc1nc(Cl)nc2c1cnn2[C@@H]1O[C@H](COCP(=O)(O)O)[C@@H](O)[C@H]1O [Example 105, ((((2R,3S,4R,5R)-5-(6-chloro-4-(((1R,2S)-2-methylcyclopentyl)amino)-1H-pyrazolo[3,4-d]pyrimidin-1-yl)-3,4-dihydroxytetrahydrofuran-2-yl)methoxy)methyl)phosphonic acid]"
9,≤ 500,"O=P(O)(O)COC[C@H]1O[C@@H](n2nnc3c(NCc4ccccc4Cl)nc(Cl)nc32)[C@H](O)[C@@H]1O [Example 30, ((((2R,3S,4R,5R)-5-(5-chloro-7-((2-chlorobenzyl)pamino)-3H-[1,2,3]triazolo[4,5-d]pyrimidin-3-yl)-3,4-dihydroxytetrahydrofuran-2-yl)methoxy)methyl)phosphonic acid]"
10,≤ 500,"C[C@]1(O)C[C@@H](CNc2nc(Cl)nc3c2cnn3[C@@H]2O[C@H](COCP(=O)(O)O)[C@@H](O)[C@H]2O)C1 [Example 89, ((((2R,3S,4R,5R)-5-(6-chloro-4-((((1s,3S)-3-hydroxy-3-methylcyclobutyl)methyl)amino)-1H-pyrazolo[3,4-d]pyrimidin-1-yl)-3,4-dihydroxytetrahydrofuran-2-yl)methoxy)methyl)phosphonic acid]"
11,≤ 500,"Cc1ccc(-c2nc(Cl)nc3c2cnn3[C@@H]2O[C@H](COCP(=O)(O)O)[C@@H](O)[C@H]2O)o1 [Example 100, ((((2R,3S,4R,5R)-5-(6-chloro-4-(5-methylfuran-2-yl)-1H-pyrazolo[3,4-d]pyrimidin-1-yl)-3,4-dihydroxytetrahydrofuran-2-yl)methoxy)methyl)phosphonic acid]"
12,≤ 500,"O=P(O)(O)COC[C@H]1O[C@@H](n2ccc3c(NC4CCCC4)nc(Cl)nc32)[C@H](O)[C@@H]1O [Example 137, ((((2R,3S,4R,5R)-5-(2-chloro-4-(cyclopentylamino)-7H-pyrrolo[2,3-d]pyrimidin-7-yl)-3,4-dihydroxytetrahydrofuran-2-yl)methoxy)methyl)phosphonic acid]"
13,≤ 500,"O=P(O)(O)COC[C@H]1O[C@@H](n2ncc3c(N[C@@H]4CCOC4)nc(Cl)nc32)[C@H](O)[C@@H]1O [Example 80, ((((2R,3S,4R,5R)-5-(6-chloro-4-(((R)-tetrahydrofuran-3-yl)amino)-1H-pyrazolo[3,4-d]pyrimidin-1-yl)-3,4-dihydroxytetrahydrofuran-2-yl)methoxy)methyl)phosphonic acid]"
14,≤ 500,"CC1(C)CCC[C@H]1Nc1nc(Cl)nc2c1cnn2[C@@H]1O[C@H](COCP(=O)(O)O)[C@@H](O)[C@H]1O [Example 103, ((((2R,3S,4R,5R)-5-(6-chloro-4-(((R)-2,2-dimethylcyclopentyl)amino)-1H-pyrazolo[3,4-d]pyrimidin-1-yl)-3,4-dihydroxytetrahydrofuran-2-yl)methoxy)methyl)phosphonic acid]"
15,> 1000,"O=P(O)(O)COC[C@H]1O[C@@H](n2ncc3c(NCc4cccc(Cl)c4)nc(N4CCCC4)nc32)[C@H](O)[C@@H]1O [Example 55, ((((2R,3S,4R,5R)-5-(4-((3-chlorobenzyl)amino)-6-(pyrrolidin-1-yl)-1H-pyrazolo[3,4-d]pyrimidin-1-yl)-3,4-dihydroxytetrahydrofuran-2-yl)methoxy)methyl)phosphonic acid]"
16,≤ 500,"O=P(O)(O)CS(=O)(=O)C[C@H]1O[C@@H](n2nnc3c(NC4Cc5ccccc5C4)nc(Cl)nc32)[C@H](O)[C@@H]1O [Example 121, (((((2S,3S,4R,5R)-5-(5-chloro-7-((2,3-dihydro-1H-inden-2-yl)amino)-3H-[1,2,3]triazolo[4,5-d]pyrimidin-3-yl)-3,4-dihydroxytetrahydrofuran-2-yl)methyl)sulfonyl)methyl)phosphonic acid]"
17,≤ 500,"O=P(O)(O)CS(=O)(=O)C[C@H]1O[C@@H](n2ncc3c(NC4CCC4)nc(Cl)nc32)[C@H](O)[C@@H]1O [Example 107, (((((2S,3S,4R,5R)-5-(6-chloro-4-(cyclobutylamino)-1H-pyrazolo[3,4-d]pyrimidin-1-yl)-3,4-dihydroxytetrahydrofuran-2-yl)methyl)sulfonyl)methyl)phosphonic acid]"
18,500 to 1000,"O=P(O)(O)COC[C@H]1O[C@@H](n2ncc3c(NCc4ncccn4)nc(Cl)nc32)[C@H](O)[C@@H]1O [Example 90, ((((2R,3S,4R,5R)-5-(6-chloro-4-((pyrimidin-2-ylmethyl)amino)-1H-pyrazolo[3,4-d]pyrimidin-1-yl)-3,4-dihydroxytetrahydrofuran-2-yl)methoxy)methyl)phosphonic acid]"
19,500 to 1000,"CN(c1nc(Cl)nc2c1cnn2[C@@H]1O[C@H](COC(=O)CP(=O)(O)O)[C@@H](O)[C@H]1O)[C@H]1CCc2ccccc21 [Example 8, (2-(((2R,3S,4R,5R)-5-(6-Chloro-4-(((S)-2,3-dihydro-1H-inden-1-yl)(methyl)amino)-1H-pyrazolo[3,4-d]pyrimidin-1-yl)-3,4-dihydroxytetrahydrofuran-2-yl)methoxy)-2-oxoethyl)phosphonic acid]"
20,≤ 500,"O=P(O)(O)COC[C@H]1O[C@@H](n2ncc3c(N4CCC4)nc(Cl)nc32)[C@H](O)[C@@H]1O [Example 83, ((((2R,3S,4R,5R)-5-(4-(azetidin-1-yl)-6-chloro-1H-pyrazolo[3,4-d]pyrimidin-1-yl)-3,4-dihydroxytetrahydrofuran-2-yl)methoxy)methyl)phosphonic acid]"
21,≤ 500,"N#Cc1nc(NCc2cccc(Cl)c2)c2cnn([C@@H]3O[C@H](COCP(=O)(O)O)[C@@H](O)[C@H]3O)c2n1 [Example 18, ((((2R,3S,4R,5R)-5-(4-((3-Chlorobenzyl)amino)-6-cyano-1H-pyrazolo[3,4-d]pyrimidin-1-yl)-3,4-dihydroxytetrahydrofuran-2-yl)methoxy)methyl)phosphonic acid]"
22,≤ 500,"CN(Cc1ccccc1Cl)c1nc(Cl)nc2c1nnn2[C@@H]1O[C@H](COCP(=O)(O)O)[C@@H](O)[C@H]1O [Example 59, ((((2R,3S,4R,5R)-5-(5-chloro-7-((2-chlorobenzyl)(methyl)amino)-3H-[1,2,3]triazolo[4,5-d]pyrimidin-3-yl)-3,4-dihydroxytetrahydrofuran-2-yl)methoxy)methyl)phosphonic acid]"
23,> 1000,"CC(C)(O)c1nc(NC2CCCC2)c2cnn([C@@H]3O[C@H](COCP(=O)(O)O)[C@@H](O)[C@H]3O)c2n1 [Example 132, ((((2R,3S,4R,5R)-5-(4-(cyclopentylamino)-6-(2-hydroxypropan-2-yl)-1H-pyrazolo[3,4-d]pyrimidin-1-yl)-3,4-dihydroxytetrahydrofuran-2-yl)methoxy)methyl)phosphonic acid]"
24,≤ 500,"C[C@H](Nc1nc(Cl)nc2c1cnn2[C@@H]1O[C@H](CS(=O)(=O)CP(=O)(O)O)[C@@H](O)[C@H]1O)c1ccccc1Cl [Example 129, (((((2S,3S,4R,5R)-5-(6-chloro-4-(((S)-1-(2-chlorophenyl)ethyl)amino)-1H-pyrazolo[3,4-d]pyrimidin-1-yl)-3,4-dihydroxytetrahydrofuran-2-yl)methyl)sulfonyl)methyl)phosphonic acid]"

row,Compound,IC50 [nM]
1,"((((1R,2R,3S,4R)-4-(5-Chloro-7-(((R)-2,3-dihydro-1H-inden-1-yl)amino)-3H-[1,2,3]triazolo[4,5-d]pyrimidin-3-yl)-2,3-dihydroxycyclopentyl)methoxy)methyl)phosphonic acid [Example 23]",≤ 500
